From PubChem BioAssay (NCI)
Several values for one entry are separate records, joined by “and”; a condition that tells them apart may be missing. Equal values may be shown once.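 Growth conditions: 96-well plates. Treatment: test compound, 48 hours, 5 concentrations. Analysis: linear interpolation between bracketing concentrations; unreached endpoints set to highest concentration. At the GI50, growth is halved. TGI is the concentration that stops growth completely.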

Legend:
Test in all cases: DTP human tumour cell line panel, 48 h; in the data active = GI50 below about 0.43 µM; inactive = the rest
SNB-75 CNS = system: SNB-75 CNS
ACHN renal = system: ACHN renal
SK-MEL-2 melanoma = system: SK-MEL-2 melanoma
OVCAR-8 ovarian = system: OVCAR-8 ovarian
HOP-62 NSCLC = system: HOP-62 NSCLC
SN12C renal = system: SN12C renal
SF-539 CNS = system: SF-539 CNS
EKVX NSCLC = system: EKVX NSCLC
SK-MEL-28 melanoma = system: SK-MEL-28 melanoma

O=C(OCc1nc2ccc(Br)cc2c(=O)n1-c1ccccc1)c1ccccc1O
> 100 µM: TGI (SNB-75 CNS) | TGI (ACHN renal) | TGI (SK-MEL-2 melanoma) | TGI (OVCAR-8 ovarian) | TGI (HOP-62 NSCLC) | TGI (SN12C renal) | TGI (SF-539 CNS) | TGI (EKVX NSCLC) | TGI (SK-MEL-28 melanoma)

CN1c2ccccc2C(=O)Nc2cnc(Cl)nc21
> 100 µM: TGI (SNB-75 CNS) | TGI (ACHN renal) | TGI (SK-MEL-2 melanoma) | TGI (OVCAR-8 ovarian) | TGI (HOP-62 NSCLC) | TGI (SN12C renal) | TGI (SF-539 CNS) | TGI (EKVX NSCLC) | TGI (SK-MEL-28 melanoma)

O=C1c2cccc3cccc(c23)C(=O)N1CCCN1CCN(CCCN2C(=O)c3cccc4cccc(c34)C2=O)CC1
> 100 µM: TGI (SNB-75 CNS) | TGI (ACHN renal) | TGI (SK-MEL-2 melanoma) | TGI (OVCAR-8 ovarian) | TGI (HOP-62 NSCLC) | TGI (SN12C renal) | TGI (SF-539 CNS) | TGI (EKVX NSCLC)

O=C1/C(=C/c2ccccc2)CN(C(=O)OCC(Cl)(Cl)Cl)C/C1=C\c1ccccc1
4.68 µM: TGI (ACHN renal)
3.56 µM: TGI (SN12C renal)
3.25 µM: TGI (SK-MEL-28 melanoma)
14 µM: TGI (SF-539 CNS)
3.78 µM: TGI (OVCAR-8 ovarian)
23.5 µM: TGI (SK-MEL-2 melanoma)
13.6 µM: TGI (SNB-75 CNS)

Cc1cccc(N2C(=O)/C(=C/c3ccc(N(CCC#N)CCC#N)cc3C)N=C2c2cc([N+](=O)[O-])ccc2Cl)c1
> 100 µM: TGI (SNB-75 CNS) | TGI (ACHN renal) | TGI (SK-MEL-2 melanoma) | TGI (OVCAR-8 ovarian) | TGI (HOP-62 NSCLC) | TGI (SN12C renal) | TGI (SF-539 CNS) | TGI (EKVX NSCLC) | TGI (SK-MEL-28 melanoma)

Cc1cccc(CC(C)(C)C)c1NC(=O)C(=O)C(C(=O)c1ccc2ccccc2c1)C1OC(=O)c2ccccc21 (configuration not stated)
11.8 µM: TGI (SF-539 CNS)
43.2 µM: TGI (HOP-62 NSCLC)
34.2 µM: TGI (SK-MEL-2 melanoma)
82.1 µM: TGI (EKVX NSCLC)
36.9 µM: TGI (SN12C renal)
18.8 µM: TGI (SK-MEL-28 melanoma)
56.2 µM: TGI (ACHN renal)

CCC1NCC(=O)c2c1[nH]c1ccccc21 (configuration not stated)
> 100 µM: TGI (SNB-75 CNS) | TGI (ACHN renal) | TGI (SK-MEL-2 melanoma) | TGI (OVCAR-8 ovarian) | TGI (SN12C renal) | TGI (SF-539 CNS) | TGI (EKVX NSCLC) | TGI (SK-MEL-28 melanoma)

Cc1c(-c2coc(-c3ccc(Cl)cc3)n2)c(=O)n(-c2ccccc2)n1C
> 100 µM: TGI (SNB-75 CNS) | TGI (ACHN renal) | TGI (SK-MEL-2 melanoma) | TGI (OVCAR-8 ovarian) | TGI (HOP-62 NSCLC) | TGI (SN12C renal) | TGI (SF-539 CNS) | TGI (EKVX NSCLC) | TGI (SK-MEL-28 melanoma)

CCCCCCCCC(=O)NCCCNCCCNC(=O)CCCCCCCC
16.1 µM: TGI (ACHN renal)
9.05 µM: TGI (SK-MEL-2 melanoma)
25.6 µM: TGI (SK-MEL-28 melanoma)
27.9 µM: TGI (HOP-62 NSCLC)
16.3 µM: TGI (SN12C renal)
32.9 µM: TGI (OVCAR-8 ovarian)
30.1 µM: TGI (EKVX NSCLC)
29.9 µM: TGI (SF-539 CNS)

Cc1ns/c(=N\C(=S)N(C)C)n1C
> 100 µM: TGI (SNB-75 CNS) | TGI (ACHN renal) | TGI (SK-MEL-2 melanoma) | TGI (OVCAR-8 ovarian) | TGI (HOP-62 NSCLC) | TGI (SN12C renal) | TGI (SF-539 CNS) | TGI (EKVX NSCLC) | TGI (SK-MEL-28 melanoma)

COc1cc2c(c(OC)c1OC)-c1ccc(SC)c(=O)cc1[C@@H](NC(=O)c1ccc(C#N)cc1)CC2
12.9 µM: TGI (OVCAR-8 ovarian)
< 0.01 µM: TGI (SF-539 CNS)
> 100 µM: TGI (ACHN renal) | TGI (EKVX NSCLC) | TGI (SK-MEL-28 melanoma)
92.4 µM: TGI (SNB-75 CNS)
56.4 µM: TGI (HOP-62 NSCLC)
> 77.8 µM: TGI (SN12C renal)
6.58 µM: TGI (SK-MEL-2 melanoma)

Cc1[nH]c(=O)nc(N/N=C/c2ccc(O)cc2)c1C(=O)Nc1ccc(Cl)cc1
> 100 µM: TGI (SNB-75 CNS) | TGI (ACHN renal) | TGI (SK-MEL-2 melanoma) | TGI (OVCAR-8 ovarian) | TGI (HOP-62 NSCLC) | TGI (SN12C renal) | TGI (SF-539 CNS) | TGI (EKVX NSCLC) | TGI (SK-MEL-28 melanoma)

O=C1c2ccccc2C(=O)c2c1ccc1c3ccccc3n(Cc3ccccc3)c21
> 100 µM: TGI (SNB-75 CNS) | TGI (ACHN renal) | TGI (SK-MEL-2 melanoma) | TGI (OVCAR-8 ovarian) | TGI (HOP-62 NSCLC) | TGI (SN12C renal) | TGI (SF-539 CNS) | TGI (EKVX NSCLC)

O=C1CC2Sc3ccccc3N=C2N1c1ccc(Cl)cc1Cl (configuration not stated)
> 100 µM: TGI (SNB-75 CNS) | TGI (ACHN renal) | TGI (SK-MEL-2 melanoma) | TGI (OVCAR-8 ovarian) | TGI (HOP-62 NSCLC) | TGI (SN12C renal) | TGI (EKVX NSCLC) | TGI (SK-MEL-28 melanoma)

CCOC(=O)NNC(=O)NC12CC3CC(CC(C3)C1)C2
> 100 µM: TGI (SNB-75 CNS) | TGI (ACHN renal) | TGI (SK-MEL-2 melanoma) | TGI (OVCAR-8 ovarian) | TGI (HOP-62 NSCLC) | TGI (SN12C renal) | TGI (SF-539 CNS) | TGI (EKVX NSCLC) | TGI (SK-MEL-28 melanoma)

Clc1ccccc1C1=NN(c2ccccc2)C2c3cc(Br)ccc3OCC12 (configuration not stated)
> 100 µM: TGI (SNB-75 CNS) | TGI (ACHN renal) | TGI (SK-MEL-2 melanoma) | TGI (OVCAR-8 ovarian) | TGI (HOP-62 NSCLC) | TGI (SF-539 CNS) | TGI (EKVX NSCLC) | TGI (SK-MEL-28 melanoma)

Fc1nc(F)nc(-c2c3ccccc3c3n2CCS3)n1
> 100 µM: TGI (SNB-75 CNS) | TGI (ACHN renal) | TGI (SK-MEL-2 melanoma) | TGI (HOP-62 NSCLC) | TGI (SN12C renal) | TGI (SF-539 CNS) | TGI (EKVX NSCLC) | TGI (SK-MEL-28 melanoma)

CCN1CC2(C)CC[C@@H](OC)C34[C@@H]2[C@H](OC(C)=O)C2(OCO[C@@]25C[C@H](OC)C2C[C@]3(O)[C@@H]5[C@H]2O)[C@H]14
> 100 µM: TGI (SNB-75 CNS) | TGI (SK-MEL-2 melanoma) | TGI (OVCAR-8 ovarian) | TGI (HOP-62 NSCLC) | TGI (SN12C renal) | TGI (SF-539 CNS) | TGI (EKVX NSCLC) | TGI (SK-MEL-28 melanoma)

O=C1/C(=C/c2ccccc2)CN(C(=O)Oc2ccc([N+](=O)[O-])cc2)C/C1=C\c1ccccc1
7.62 µM: TGI (SN12C renal)
inactive: GI50 (ACHN renal) 4.94 µM | GI50 (OVCAR-8 ovarian) 1860 nM | GI50 (SN12C renal) 3.45 µM
29.2 µM: TGI (SK-MEL-2 melanoma)
3.74 µM and 4.18 µM: TGI (OVCAR-8 ovarian)
7.65 µM: TGI (SK-MEL-28 melanoma)
